In patent US20060062862A1, “Cholesterol-reducing agent made of dietary fibre and cholesterol-reducing substances” (priority 2002, published 2006):

System: Male Syrian hamsters, feed enriched with 0.35% cholesterol
Assay: Hypocholesterolemic activity of carob fiber and statins in vivo
Set-up: species or system Syrian hamster
Details: 28 days, in feed: carob fiber 2.5%, simvastatin 1.5 mg %
Text: Determination of the Hypocholesterolemic Activity of Carob Fiber and Statins In Vivo Hamsters are seen as a suitable animal model for propounding the present invention, even if the metabolic processes in hamsters and humans differ slightly. At all events, the two substances tested here in combination each give alone in humans a reducing effect on the serum cholesterol values, in particular on LDL cholesterol. The effect of a combined administration of carob fiber and a statin, here simvastatin, in this model should therefore also give conclusions for humans. Male Syrian hamsters (100-120 g at the start of the study) received feed enriched with 0.35% cholesterol. […] The hamsters were divided into groups of 9 animals and treated with the test substances over a period of 28 days. After the animals were anesthetized, blood was obtained for determining the serum cholesterol values. The serum cholesterol contents were determined after obtaining the plasma from whole blood using a commercially obtained enzyme test kit. The total cholesterol content of the test groups thus determined were compared with the results of a control group which received no test substances.

Compound: CCC(C)(C)C(=O)O[C@H]1C[C@@H](C)C=C2C=C[C@H](C)[C@H](CC[C@@H]3C[C@@H](O)CC(=O)O3)[C@H]21 [Simvastatin, simvastatin]
- Total cholesterol in blood serum (0.35% cholesterol feed, control 7.65): 6.50 mmol/L
- Changes from the control in % (total serum cholesterol vs control group): 15%
